Measurements published in BindingDB's records for patent US11884671 (AstraZeneca, 2024).

Columns and labels:
Aurora kinase B = Aurora kinase B (Homo sapiens, UniProt Q96GD4); test: Enzyme Assay
Protocol: Aurora B (AurB): The 2×AURKB (Aurora B)/Ser/Thr 01 (ThermoFisher Scientific proprietary) mixture was prepared in 50 mM HEPES pH 7.5, 0.01% BRIJ-35, 10 mM MgCl2, 1 mM EGTA.

[1] = target: T1, Dual specificity protein kinase TTK (Homo sapiens, UniProt P33981); test: TTK Enzyme Assay
T1 sequence (P33981 whole entry): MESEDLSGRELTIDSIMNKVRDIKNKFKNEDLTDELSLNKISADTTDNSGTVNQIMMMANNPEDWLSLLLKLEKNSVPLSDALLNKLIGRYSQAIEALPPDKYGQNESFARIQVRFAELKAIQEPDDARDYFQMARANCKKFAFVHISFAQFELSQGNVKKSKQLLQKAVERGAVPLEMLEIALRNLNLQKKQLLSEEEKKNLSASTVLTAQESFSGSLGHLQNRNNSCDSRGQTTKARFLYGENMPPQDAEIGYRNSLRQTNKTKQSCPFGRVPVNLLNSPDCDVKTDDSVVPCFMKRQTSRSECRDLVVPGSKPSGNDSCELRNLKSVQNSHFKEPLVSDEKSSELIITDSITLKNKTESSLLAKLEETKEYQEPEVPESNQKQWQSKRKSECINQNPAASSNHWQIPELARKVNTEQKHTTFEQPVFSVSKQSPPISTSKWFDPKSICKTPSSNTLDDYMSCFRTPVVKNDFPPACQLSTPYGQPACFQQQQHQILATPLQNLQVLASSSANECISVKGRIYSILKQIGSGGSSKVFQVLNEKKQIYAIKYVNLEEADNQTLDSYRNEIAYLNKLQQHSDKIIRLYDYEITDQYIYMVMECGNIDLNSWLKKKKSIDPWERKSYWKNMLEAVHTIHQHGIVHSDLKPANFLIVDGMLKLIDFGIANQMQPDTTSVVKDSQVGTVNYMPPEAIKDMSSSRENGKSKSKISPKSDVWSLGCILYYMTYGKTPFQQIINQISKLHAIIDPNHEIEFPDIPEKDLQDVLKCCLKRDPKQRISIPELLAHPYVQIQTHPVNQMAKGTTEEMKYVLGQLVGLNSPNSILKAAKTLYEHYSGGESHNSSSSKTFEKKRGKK
Protocol: The inhibitory activity of compounds against TTK was determined in a LanthaScreen Eu Kinase Binding assay run by ThermoFisher Scientific as part of their SelectScreen Biochemical Kinase Profiling Service. The LanthaScreen Eu Kinase Binding assay format uses binding of an Alexa Fluor conjugate or tracer to a kinase, which is detected by addition of a Eu-labeled anti-tag antibody. […] Plates were then read using a fluorescence plate reader.

[2] = target: Tyrosine-protein kinase JAK1 (Homo sapiens, UniProt P23458); test: Enzyme Assay
Tyrosine-protein kinase JAK1, sequence (P23458 whole entry): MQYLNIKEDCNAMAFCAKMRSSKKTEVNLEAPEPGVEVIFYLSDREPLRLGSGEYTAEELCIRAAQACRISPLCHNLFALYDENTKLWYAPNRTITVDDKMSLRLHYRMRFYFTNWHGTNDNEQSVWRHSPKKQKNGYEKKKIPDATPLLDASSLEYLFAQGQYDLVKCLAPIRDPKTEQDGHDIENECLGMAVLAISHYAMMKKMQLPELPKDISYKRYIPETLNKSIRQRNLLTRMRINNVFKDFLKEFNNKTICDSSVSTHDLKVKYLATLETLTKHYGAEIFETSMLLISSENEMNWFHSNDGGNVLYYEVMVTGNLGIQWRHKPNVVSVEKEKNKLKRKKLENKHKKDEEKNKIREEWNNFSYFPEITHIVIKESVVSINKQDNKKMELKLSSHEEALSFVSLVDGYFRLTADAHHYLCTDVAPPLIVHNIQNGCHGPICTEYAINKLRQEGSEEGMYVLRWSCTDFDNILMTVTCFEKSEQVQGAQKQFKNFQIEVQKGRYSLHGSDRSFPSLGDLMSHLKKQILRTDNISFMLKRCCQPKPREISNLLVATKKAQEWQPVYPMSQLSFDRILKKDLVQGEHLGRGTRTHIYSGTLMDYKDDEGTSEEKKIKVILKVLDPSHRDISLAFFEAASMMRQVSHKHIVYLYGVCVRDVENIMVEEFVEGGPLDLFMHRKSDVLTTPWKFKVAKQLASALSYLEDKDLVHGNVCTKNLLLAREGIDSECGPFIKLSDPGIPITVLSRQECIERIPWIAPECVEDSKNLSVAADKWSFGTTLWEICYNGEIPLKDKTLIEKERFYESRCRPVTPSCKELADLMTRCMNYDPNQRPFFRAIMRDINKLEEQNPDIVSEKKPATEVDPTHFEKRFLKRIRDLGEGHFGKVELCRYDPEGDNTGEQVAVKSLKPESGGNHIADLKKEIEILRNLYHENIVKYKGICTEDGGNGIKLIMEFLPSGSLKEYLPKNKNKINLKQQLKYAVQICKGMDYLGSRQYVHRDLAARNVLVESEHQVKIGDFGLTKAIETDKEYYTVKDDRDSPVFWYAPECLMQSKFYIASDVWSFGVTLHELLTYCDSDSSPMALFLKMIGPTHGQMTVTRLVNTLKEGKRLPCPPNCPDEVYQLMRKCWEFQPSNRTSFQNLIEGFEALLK
Protocol: JAK1: The 2×JAK/Tyr 06 (ThermoFisher Scientific proprietary) mixture was prepared in 50 mM HEPES pH 6.5, 0.01% BRIJ-35, 10 mM MgCl2, 1 mM EGTA, 0.02% NaN3.

Aurora kinase A = target: T2, Aurora kinase A (Homo sapiens, UniProt O14965)
T2 sequence (O14965 whole entry): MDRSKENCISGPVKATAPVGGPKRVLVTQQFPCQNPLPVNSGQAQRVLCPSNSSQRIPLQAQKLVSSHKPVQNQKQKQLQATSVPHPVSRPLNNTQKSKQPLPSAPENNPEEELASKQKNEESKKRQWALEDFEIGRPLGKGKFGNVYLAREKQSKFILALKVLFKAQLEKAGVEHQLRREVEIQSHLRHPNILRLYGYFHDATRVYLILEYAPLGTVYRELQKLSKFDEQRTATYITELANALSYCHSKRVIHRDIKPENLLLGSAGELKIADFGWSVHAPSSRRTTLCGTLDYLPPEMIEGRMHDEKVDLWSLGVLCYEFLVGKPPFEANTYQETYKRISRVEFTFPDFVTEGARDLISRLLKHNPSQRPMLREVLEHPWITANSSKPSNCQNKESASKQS

[3] = target: T3, Tyrosine-protein kinase JAK3 (Homo sapiens, UniProt P52333); test: Enzyme Assay
T3 sequence (P52333 whole entry): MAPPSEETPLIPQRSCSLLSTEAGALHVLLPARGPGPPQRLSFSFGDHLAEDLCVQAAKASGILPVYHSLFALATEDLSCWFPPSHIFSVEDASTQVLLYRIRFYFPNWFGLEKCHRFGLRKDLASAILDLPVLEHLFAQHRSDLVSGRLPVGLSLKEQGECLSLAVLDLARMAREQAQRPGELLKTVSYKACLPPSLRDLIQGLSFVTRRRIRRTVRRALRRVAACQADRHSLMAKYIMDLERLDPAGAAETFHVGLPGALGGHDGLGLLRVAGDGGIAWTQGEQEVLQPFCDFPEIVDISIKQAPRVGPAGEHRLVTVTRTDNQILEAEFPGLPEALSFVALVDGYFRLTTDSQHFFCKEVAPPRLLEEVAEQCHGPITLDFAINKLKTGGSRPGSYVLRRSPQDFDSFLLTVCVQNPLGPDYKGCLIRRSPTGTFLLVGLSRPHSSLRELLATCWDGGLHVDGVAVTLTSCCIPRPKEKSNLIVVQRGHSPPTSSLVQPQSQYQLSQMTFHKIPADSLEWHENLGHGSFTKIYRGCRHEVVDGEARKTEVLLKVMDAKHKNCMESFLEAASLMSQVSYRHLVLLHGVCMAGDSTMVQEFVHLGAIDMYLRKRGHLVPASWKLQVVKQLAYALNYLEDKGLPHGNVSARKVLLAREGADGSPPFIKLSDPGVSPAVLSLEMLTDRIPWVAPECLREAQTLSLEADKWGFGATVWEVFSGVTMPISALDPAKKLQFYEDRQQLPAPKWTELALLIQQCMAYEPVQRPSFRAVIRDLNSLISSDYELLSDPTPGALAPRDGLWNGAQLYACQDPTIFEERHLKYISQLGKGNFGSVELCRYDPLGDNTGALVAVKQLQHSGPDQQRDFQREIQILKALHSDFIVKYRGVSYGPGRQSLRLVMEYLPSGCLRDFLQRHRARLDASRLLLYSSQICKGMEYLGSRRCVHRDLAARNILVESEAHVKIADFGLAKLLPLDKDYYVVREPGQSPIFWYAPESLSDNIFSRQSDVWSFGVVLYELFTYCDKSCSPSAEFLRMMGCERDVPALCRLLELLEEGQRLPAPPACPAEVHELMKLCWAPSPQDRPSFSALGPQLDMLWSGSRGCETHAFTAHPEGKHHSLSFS
Protocol: JAK3: The 2×JAK3/Tyr 06 (ThermoFisher Scientific proprietary) mixture was prepared in 50 mM HEPES pH 7.5. 0.01% BRIJ-35, 10 mM MgCl2, 1 mM EGTA.

[4] = target: Tyrosine-protein kinase JAK2 (Homo sapiens, UniProt O60674); test: Enzyme Assay
Tyrosine-protein kinase JAK2, sequence (O60674 whole entry): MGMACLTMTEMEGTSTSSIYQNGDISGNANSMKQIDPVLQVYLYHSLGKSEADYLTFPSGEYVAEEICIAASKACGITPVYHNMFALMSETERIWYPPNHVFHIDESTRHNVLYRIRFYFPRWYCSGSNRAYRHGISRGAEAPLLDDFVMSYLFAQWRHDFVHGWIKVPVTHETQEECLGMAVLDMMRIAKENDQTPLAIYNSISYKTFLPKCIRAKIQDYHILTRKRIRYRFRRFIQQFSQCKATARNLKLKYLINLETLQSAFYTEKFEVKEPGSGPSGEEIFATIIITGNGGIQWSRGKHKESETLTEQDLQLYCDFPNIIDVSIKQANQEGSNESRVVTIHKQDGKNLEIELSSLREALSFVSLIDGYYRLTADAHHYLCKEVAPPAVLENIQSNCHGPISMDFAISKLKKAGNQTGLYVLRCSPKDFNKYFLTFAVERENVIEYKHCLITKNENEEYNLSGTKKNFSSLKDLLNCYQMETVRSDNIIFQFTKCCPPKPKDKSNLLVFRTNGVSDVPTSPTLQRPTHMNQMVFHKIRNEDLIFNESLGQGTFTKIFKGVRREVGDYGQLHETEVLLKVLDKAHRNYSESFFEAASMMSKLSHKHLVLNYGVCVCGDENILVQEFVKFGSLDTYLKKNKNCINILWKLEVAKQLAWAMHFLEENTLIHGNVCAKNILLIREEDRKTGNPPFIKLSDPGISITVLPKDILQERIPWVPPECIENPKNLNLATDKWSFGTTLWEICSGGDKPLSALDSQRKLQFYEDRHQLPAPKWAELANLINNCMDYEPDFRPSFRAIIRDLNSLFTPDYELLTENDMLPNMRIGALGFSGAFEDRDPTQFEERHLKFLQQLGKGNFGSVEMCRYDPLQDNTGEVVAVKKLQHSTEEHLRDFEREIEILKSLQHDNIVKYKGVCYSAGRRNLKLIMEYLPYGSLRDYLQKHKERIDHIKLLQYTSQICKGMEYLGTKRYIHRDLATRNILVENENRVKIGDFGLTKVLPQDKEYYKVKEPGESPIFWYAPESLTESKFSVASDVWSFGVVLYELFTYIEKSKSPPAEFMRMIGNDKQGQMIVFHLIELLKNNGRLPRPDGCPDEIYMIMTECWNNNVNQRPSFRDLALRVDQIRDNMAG
Protocol: JAK2: The 2×JAK2/Tyr 06 (ThermoFisher Scientific proprietary) mixture was prepared in 50 mM HEPES pH 7.5, 0.01% BRIJ-35, 10 mM MgCl2, 1 mM EGTA.

Aurora kinase B, sequence (Q96GD4 whole entry): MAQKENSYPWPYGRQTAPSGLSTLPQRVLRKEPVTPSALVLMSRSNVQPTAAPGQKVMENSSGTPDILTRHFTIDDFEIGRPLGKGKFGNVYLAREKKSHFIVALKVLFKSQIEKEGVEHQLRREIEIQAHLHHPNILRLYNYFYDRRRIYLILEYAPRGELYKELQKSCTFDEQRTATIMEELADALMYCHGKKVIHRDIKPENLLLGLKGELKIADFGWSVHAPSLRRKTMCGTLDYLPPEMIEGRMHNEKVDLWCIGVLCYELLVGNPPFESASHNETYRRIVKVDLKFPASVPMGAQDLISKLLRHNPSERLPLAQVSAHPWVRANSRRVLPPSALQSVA

For `Cc1cc2nnccc2cc1Nc1ncc2c(n1)n([C@H]1CC[C@](C)(O)CC1)c(=O)n2C` [US11884671, Example 17], the IC50 (Aurora kinase B) was > 10 µM, the IC50 [1] was 0.316 µM and the IC50 [2] was > 10 µM. For the same compound, the IC50 (Aurora kinase A) was > 10 µM, the IC50 [3] was > 10 µM and the IC50 [4] was > 10 µM.

`Cc1cc2ncccc2cc1Nc1ncc2c(n1)n([C@H]1CC[C@@](C)(O)CC1)c(=O)n2C` [US11884671, Example 14] was tested, and the IC50 (Aurora kinase B) was > 10 µM, the IC50 [1] was 0.1 µM and the IC50 [2] was > 10 µM. The IC50 (Aurora kinase A) was > 10 µM, the IC50 [3] was > 10 µM and the IC50 [4] was > 10 µM.

With `Cc1cc2ncccc2cc1Nc1ncc2c(n1)n([C@H]1CC[C@](C)(O)CC1)c(=O)n2C` [US11884671, Example 15] the IC50 (Aurora kinase B) was > 10 µM, the IC50 [1] was 0.251 µM and the IC50 [2] was > 10 µM. For the same compound, the IC50 (Aurora kinase A) was > 10 µM, the IC50 [3] was > 10 µM and the IC50 [4] was > 10 µM.

`Cc1cc2nnccc2cc1Nc1ncc2c(n1)n([C@H]1CC[C@@](C)(O)CC1)c(=O)n2C` [US11884671, Example 16] was tested, and the IC50 (Aurora kinase B) was > 10 µM, the IC50 [1] was 0.2 µM and the IC50 [2] was > 10 µM. For the same compound, the IC50 (Aurora kinase A) was > 10 µM, the IC50 [3] was > 10 µM and the IC50 [4] was > 10 µM.
